What was measured:
[1] = test system: Neonatal foreskin primary human epidermal melanocytes; assay: Cell viability, calcein method; format: cell-based
Protocol: (§1) All test compounds were purchased from SIGMA-ALDRICH as powders. They were tested at various concentrations in cell culture (see below). Forskolin (SIGMA Cat. # F6886) was used as reference comparators, as they have been reported to increase melanin content. Neonatal foreskin primary human epidermal melanocytes were procured from Cascade Biologicals (labelled passage P0). Melanocytes were maintained in Medium 254CF (Cascade Cat. # M-254CF-500) supplemented with human melanocyte growth supplement (Cascade; Cat. # S-002-5), hereafter referred to as MGM. Cells were maintained at 37° C. in a humidified incubator with 5% CO2 atmosphere.
(§2) 50,000 cells were seeded in 24 well plate in MGM; after 24 hours, cultures were treated with various concentrations of the test materials and left undisturbed for a further period of 72 hours. Comparative vehicle controls of 0.25% (v/v) DMSO were also set up in parallel, simultaneously. At the end of the incubation period, cell viability was determined using the calcein method.
Briefly, cell culture spent media was removed and cells washed once with 0.4 ml of 1× PBS-Ca—Mg solution. Fresh 1 μM calcein-AM was added (0.2 ml/well), including to control wells without cells. Plates were covered with aluminium foil and incubated for 30 minutes. at 37° C. in the regular CO2 incubator. Calcein fluorescence was then measured (λmax 490 nm and λmax 520 nm) in TECAN® M1000 Infinite series plate reader.
(§3) Calcein fluorescence values were ratio converted in 0 to 100 scale (% viability), with 100 representing the value of the 0.25% DMSO sample. % Melanin content was calculated as the ratio between OD405 nm value of any sample to that of DMSO reference sample.

[2] = test system: Neonatal foreskin primary human epidermal melanocytes; assay: Melanin content assay; format: cell-based; conditions: 72 hours, compared to vehicle control = 100
Protocol: as §1, §2
After calcein fluorescence readings were obtained, cells were drained and added fresh 125 μl of 1N NaOH (in 10% DMSO) per well. Cells were lysed by resuspension and incubation (60° C./1 hour.). Then this lysate was transferred to a fresh […] and measured OD405 nm in a TECAN M1000 plate reader (estimate of relative melanin content).
as §3
Normalized melanin content value was then calculated as 100*(% Melanin Content)/(% Cellular viability).
The percentage Increase in melanin content was estimated as [(Normalized melanin content)−100]

Row | SMILES | % Viability ([1]; human, 72 h, 10 µM) [%] | % Viability ([1]; human, 72 h, 15 µM) [%] | % Viability ([1]; human, 72 h, 20 µM) [%] | % Viability ([1]; human, 72 h, 25 µM) [%] | % Melanin content ([2]; 10 micromolar) [%] | % Melanin content ([2]; 15 micromolar) [%] | % Melanin content ([2]; 20 micromolar) [%] | % Melanin content ([2]; 25 micromolar) [%] | % Viability ([1]; human, 72 h, 6.25 µM) [%] | % Viability ([1]; human, 72 h, 12.5 µM) [%] | % Melanin content ([2]; 6.25 micromolar) [%] | % Melanin content ([2]; 12.5 micromolar) [%] | % Viability ([1]; human, 72 h, 5 µM) [%] | % Melanin content ([2]; 5 micromolar) [%] | % Viability ([1]; 10 micromolar, 72 hours, relative to 0.25% DMSO control = 100) [%] | % Viability ([1]; 15 micromolar, 72 hours, relative to 0.25% DMSO control = 100) [%] | % Viability ([1]; 20 micromolar, 72 hours, relative to 0.25% DMSO control = 100) [%] | % Viability ([1]; 25 micromolar, 72 hours, relative to 0.25% DMSO control = 100) [%]
1 | CCCCCCCCCCCOc1ccc(C(=O)O)cc1 [Example 5, 4-undecyloxybenzoic acid] | 97 | 100 | 90 | 79 | 136 | 146 | 134 | 120 | – | – | – | – | – | – | – | – | – | –
2 | CCCCCCCc1ccc(C(=O)O)cc1 [Example 1, 4-heptyl benzoic acid] | – | – | – | 93 | – | – | – | 113 | 102 | 102 | 124 | 129 | – | – | – | – | – | –
3 | CCCCCCCCCOc1ccc(C(=O)O)cc1 [Example 4, 4-nonyloxybenzoic acid] | 109 | 109 | 103 | 103 | 129 | 136 | 130 | 137 | – | – | – | – | 102 | 126 | – | – | – | –
4 | CCCCCCCOc1ccc(C(=O)O)cc1 [Example 2, 4-heptyloxybenzoic acid] | – | – | – | – | 117 | 126 | 129 | 137 | – | – | – | – | – | – | 94 | 96 | 95 | 96
5 | CCCCCCCCOc1ccc(C(=O)O)cc1 [Example 3, 4-octyloxybenzoic acid] | 101 | 103 | 100 | 86 | 127 | 144 | 127 | 86 | – | – | – | – | – | – | – | – | – | –
